Experimental data as given in patent US20010051184A1, “METHOD FOR USING SOLUBLE CURCUMIN TO INHIBIT PHOSPHORYLASE KINASE IN INFLAMMATORY DISEASES” (priority 1999, published 2001).

Key:
[1] = system: parakeratosis of stratum corneum; assay: Severity of parakeratosis in treated psoriasis; format: in vivo, human; conditions: mean±SD, untreated 94.6±4.3%
From the text: With consent, punch biopsies were collected (6 mm) from active plaques of 10 patients with active untreated psoriasis, from resolving plaques from 10 patients each treated with curcumin alcoholic gel (1%) for 4-6 weeks, and with Dovonex ointment for 6-18 months. Normal skin was also biopsied from 10 non-psoriatic patients to monitor the results. Parakeratosis, assessed histologically by the loss of granular layer and the presence of nuclei of immature keratinocytes within the stratum comeum, reflects in part the migratory capacity of basal keratinocytes towards the stratum comeum. The severity of parakeratosis is assessed as % involvement of a 4 mm linear strip of stratum comeum. An average of three sections per biopsy specimen was used for data analysis.

epidermal CD8+ T cells = assay: Epidermal CD8+ T-cell density in treated psoriasis; format: in vivo, human; conditions: mean, untreated 38.2
Experimental: (§1) With consent, punch biopsies were collected (6 mm) from active plaques of 10 patients with active untreated psoriasis, from resolving plaques from 10 patients each treated with curcumin alcoholic gel (1%) for 4-6 weeks, and with Dovonex ointment for 6-18 months. Normal skin was also biopsied from 10 non-psoriatic patients to monitor the results. Biopsy specimens for immunocytochemistry were embedded in OCT compound (Tissue-Tek), snap-frozen in liquid nitrogen and stored at −70° C. Serial cryostat sections (4 Tm) were mounted on gelatin-coated slides and air-dried for 30 mins at room temperature. The mounted sections were then freeze-dried for 4 hours, fixed in acetone for 20 mins at room temperature, and air-dried for 5 mins prior to immunostaining. Monoclonal antibodies (as listed at Table 7), were added to the sections, which were then incubated for 60 mins at room temperature, washed in phosphate-buffered saline (PBS) pH 7.6, and overlaid with peroxidase conjugate. All monoclonal antibodies had been obtained from Becton-Dickinson and were used at 1:100 dilution. The sections were then washed with PBS and the peroxidase color developed using diaminobenzidine. Negative controls from all patients were processed as above, omitting the monoclonal antibodies. […] The density of the epidermal CD8+ T-cells was enumerated and quantified as the number of epidermal CD8+ T cells per hpf. […]

CD3+ T lymphocytes = CD3+ T lymphocytes in curcumin-treated psoriatic skin (immunohistochemistry, FIG. 9); format: in vivo, human; conditions: FIG. 9b; T lymphocytes present only within dermal blood vessels
HLA-DR+ cells = assay: HLA-DR expression in treated psoriasis; format: in vivo, human
Experimental: as §1, with “diaminobenzidine.” for “diaminobenzidine. Negative controls from all patients were processed as above, omitting the monoclonal antibodies.”, “activated HLA+ inflammatory cell population” for “density of the epidermal CD8+ T-cells”, “assessed as abundant (200-500 or more cells/hpf), moderate (50-200 cells/hpf),” for “enumerated”, “sparse (1-50/hpf).” for “quantified as the number of epidermal CD8+ T cells per hpf.”

psoriatic plaques = assay: Clinical resolution of psoriatic plaques; format: in vivo, human; conditions: clinical observations
From the text: With consent, punch biopsies were collected (6 mm) from active plaques of 10 patients with active untreated psoriasis, from resolving plaques from 10 patients each treated with curcumin alcoholic gel (1%) for 4-6 weeks, and with Dovonex ointment for 6-18 months. Normal skin was also biopsied from 10 non-psoriatic patients to monitor the results.
In this study, the anti-psoriatic activity of curcumin is reported. Also known as diferuloylmethane, curcumin is a component in spices such as turmeric and ginger. […] Based on clinical observations that untreated psoriatic plaques resolve within 4-6 weeks with curcumin and between 6-18 months or more with Dovonex, the results of this Example lead to the conclusion that curcumin is at least as effective as Dovonex in producing clinical resolution of psoriatic plaques.

phosphorylase kinase = assay: Phosphorylase kinase activity in treated psoriatic epidermis (Example 6); format: in vivo, human; conditions: mean±SD, n=10; curcumin alcoholic gel (1%) 4-6 weeks, Dovonex ointment 6-18 months; untreated psoriasis 1204.6±804.3, normal skin 105.4±44.6
Experimental: With consent, punch biopsies were collected (6 mm) from active plaques of 10 patients with active untreated psoriasis, from resolving plaques from 10 patients each treated with curcumin alcoholic gel (1%) for 4-6 weeks, and with Dovonex ointment for 6-18 months. Normal skin was also biopsied from 10 non-psoriatic patients to monitor the results. From each site, skin biopsy samples (6 mm punch) were stored at −70° C., and processed thereafter as previously described (Heng et al. (1994), supra). Briefly, each frozen sample, with the epidermal surface facing upwards, was placed in a glass tube to which 3 ml Tris-HCl buffer (10 mM Tris-HCl, pH 7.8, 1 mM dithiothreitol (DDT), 3 mM MgSO4 and 1 mM EGTA) was added. This was homogenized vigorously with a Teflon plunger in a TRIS-R model K41 homogenizer for 1 sec. Homogenization was repeated if necessary. The lysate of epidermal cells, separated from the dermis, was in the cytosolic solution. The fibroblasts that were inadvertently detached, together with the relatively intact piece of dermis, were removed by decanting the cytosolic solution into a 5 ml capacity polypropylene test tube. […] The filter paper containing […] was counted in a liquid scintillation counter. Enzyme activity was determined based on the standard curve prepared with phosphorylase kinase of known activity supplied by Sigma Co (St. Louis, Mo.).

[2] = Solubility study on curcumin; format: physicochemical; conditions: for Solubility result: 0.5 g of curcumin
Experimental: Table 1 reports the results of a solubility study on curcumin. […] Curcumin is also not soluble in cold mineral oil or hot mineral oil. However, curcumin is soluble in 70% isopropyl alcohol to at least the extent of 0.5 g/50 ml.

TRR+ keratinocytes = assay: Transferrin receptor (TRR) expression by keratinocytes in treated psoriasis; format: in vivo, human; conditions: mean, n=10; treated resolving psoriasis; untreated 60.1%, normal skin 4.3%
Experimental: With consent, punch biopsies were collected (6 mm) from active plaques of 10 patients with active untreated psoriasis, from resolving plaques from 10 patients each treated with curcumin alcoholic gel (1%) for 4-6 weeks, and with Dovonex ointment for 6-18 months. Normal skin was also biopsied from 10 non-psoriatic patients to monitor the results. Biopsy specimens for immunocytochemistry were embedded in OCT compound (Tissue-Tek), snap-frozen in liquid nitrogen and stored at −70° C. Serial cryostat sections (4 Tm) were mounted on gelatin-coated slides and air-dried for 30 mins at room temperature. The mounted sections were then freeze-dried for 4 hours, fixed in acetone for 20 mins at room temperature, and air-dried for 5 mins prior to immunostaining. Monoclonal antibodies (as listed at Table 7), were added to the sections, which were then incubated for 60 mins at room temperature, washed in phosphate-buffered saline (PBS) pH 7.6, and overlaid with peroxidase conjugate. All monoclonal antibodies had been obtained from Becton-Dickinson and were used at 1:100 dilution. […] The expression of TRR on basal and suprabasal keratinocytes was quantified as the percentage of TRR+ keratinocytes per rete ridge. The keratinocytes of 10 consecutive rete ridges were assessed in for each biopsy and the results averaged.

SMILES: COc1cc(/C=C/C(=O)CC(=O)/C=C/c2ccc(O)c(OC)c2)ccc1O [curcumin, (E, E) 1,7-bis(4-hydroxy-3-methoxyphenyl)-1,6-heptadiene-3,5-dione]
- Parakeratosis, linear involvement of stratum corneum [1]: 1.4±2.4%
- Number of epidermal CD8+ cells/hpf (epidermal CD8+ T cells): 0.6 cells/hpf
- CD3+ T lymphocytes in epidermis of treated resolving psoriatic skin (CD3+ T lymphocytes): lack of T lymphocytes in epidermis
- Overall HLA-DR expression (HLA-DR+ inflammatory cell population), grade per specimen (HLA-DR+ cells; 10 skin specimens per treated group, untreated abundant in 10/10): sparse (sparse (1-50/hpf))
- HLA-DR expression on endothelial cells and keratinocytes (HLA-DR+ cells; treated psoriasis, untreated strongly positive): not observed
- Time for psoriatic plaques to resolve under curcumin treatment (psoriatic plaques): 4-6 weeks
- Phosphorylase kinase activity in treated psoriatic epidermis (phosphorylase kinase): 207.2±97.6 units/mg protein
- Solubility in 70% isopropyl alcohol ([2]; 70% isopropyl alcohol): ≥ 0.5 g/50 ml
- Solubility result ([2]; 70% isopropyl alcohol, 5 ml): Soluble (some precipitate?
- Solubility result ([2]; 70% isopropyl alcohol, 50 ml): Soluble (no precipitate)
- Solubility result ([2]; Cold water, 5 ml): Not soluble (precipitate present)
- Solubility result ([2]; Cold water, 50 ml): Not soluble (precipitate present)
- Solubility result ([2]; Cold water, 500 ml): Not soluble (precipitate present)
- Solubility result ([2]; Mineral oil (140° F.), 5 ml): Not soluble (precipitate present)
- Solubility result ([2]; Mineral oil (140° F.), 50 ml): Not soluble (precipitate present)
- Solubility result ([2]; Mineral oil, 5 ml): Not soluble (precipitate present)
- Solubility result ([2]; Mineral oil, 50 ml): Not soluble (precipitate present)
- Solubility result ([2]; Water (200° F.), 5 ml): Not soluble (precipitate present)
- Solubility result ([2]; Water (200° F.), 50 ml): Not soluble (precipitate present)
- Solubility result ([2]; Water (200° F.), 500 ml): Not soluble (precipitate present)
- Solubility ([2]; cold mineral oil): not soluble
- Solubility ([2]; cold water): not soluble
- Solubility ([2]; hot mineral oil): not soluble
- Solubility ([2]; hot water): not soluble
- Percentage of TRR+ keratinocytes/rete ridge (TRR+ keratinocytes): 4.3%
